Reference: ChEMBL document CHEMBL1149774, “Synthesis of N-(5,7-diamino-3-phenyl-quinoxalin-2-yl)-3,4,5-substituted anilines and N-[4[(5,7-diamino-3-phenylquinoxalin-2-yl)amino]benzoyl]-l-glutamic acid diethyl ester: evaluation of in vitro anti-cancer and anti-folate activities” (Eur J Med Chem, 2008)

What was measured:
Type in all cases: functional
[1] = system: BT-549; assay: Growth inhibition of human BT549 cells after 48 hrs by SRB staining method; conditions: BT-549, 48 h
[2] = system: K562; assay: Growth inhibition of human K562 cells after 48 hrs by SRB staining method; conditions: K562, 48 h
[3] = system: NCI-H226; assay: Growth inhibition of human NCI-H226 cells after 48 hrs by SRB staining method; conditions: NCI-H226, 48 h
[4] = system: DU-145; assay: Growth inhibition of human DU145 cells after 48 hrs by SRB staining method; conditions: DU-145, 48 h
[5] = system: Malme-3M; assay: Growth inhibition of human MALME-3M cells after 48 hrs by SRB staining method
[6] = system: UACC-62; assay: Growth inhibition of human UACC62 cells after 48 hrs by SRB staining method; conditions: UACC-62, 48 h
[7] = system: SK-MEL-2; assay: Growth inhibition of human SK-MEL-2 cells after 48 hrs by SRB staining method; conditions: SK-MEL-2, 48 h
[8] = system: SR; assay: Growth inhibition of human SR cells after 48 hrs by SRB staining method
[9] = system: CAKI-1; assay: Growth inhibition of human CAKI1 cells after 48 hrs by SRB staining method; conditions: CAKI-1, 48 h
[10] = system: COLO 205; assay: Growth inhibition of human COLO205 cells after 48 hrs by SRB staining method; conditions: COLO 205, 48 h
[11] = system: IGROV-1; assay: Growth inhibition of human IGROV1 cells after 48 hrs by SRB staining method; conditions: IGROV-1, 48 h
[12] = system: SK-OV-3; assay: Growth inhibition of human SKOV3 cells after 48 hrs by SRB staining method; conditions: SK-OV-3, 48 h
[13] = system: SF-295; assay: Growth inhibition of human SF295 cells after 48 hrs by SRB staining method; conditions: SF-295, 48 h
[14] = system: RXF 393; assay: Growth inhibition of human RXF393 cells after 48 hrs by SRB staining method; conditions: RXF 393, 48 h
[15] = system: UACC-257; assay: Growth inhibition of human UACC257 cells after 48 hrs by SRB staining method; conditions: UACC-257, 48 h
[16] = system: NCI-H460; assay: Growth inhibition of human NCI-H460 cells after 48 hrs by SRB staining method; conditions: NCI-H460, 48 h
[17] = system: HCT-15; assay: Growth inhibition of human HCT15 cells after 48 hrs by SRB staining method; conditions: HCT-15, 48 h
[18] = system: ACHN; assay: Growth inhibition of human ACHN cells after 48 hrs by SRB staining method
[19] = system: OVCAR-8; assay: Growth inhibition of human OVCAR8 cells after 48 hrs by SRB staining method; conditions: OVCAR-8, 48 h
[20] = system: T47D; assay: Growth inhibition of human T47D cells after 48 hrs by SRB staining method
[21] = system: SF-268; assay: Growth inhibition of human SF268 cells after 48 hrs by SRB staining method; conditions: SF-268, 48 h
[22] = system: MDA-MB-231; assay: Growth inhibition of human MDA-MB-231 cells after 48 hrs by SRB staining method; conditions: MDA-MB-231, 48 h
[23] = system: MCF7; assay: Growth inhibition of human MCF7 cells after 48 hrs by SRB staining method; conditions: MCF7, 48 h
[24] = system: HL-60; assay: Growth inhibition of human HL60 cells after 48 hrs by SRB staining method; conditions: HL-60, 48 h
[25] = system: NCI-H23; assay: Growth inhibition of human NCI-H23 cells after 48 hrs by SRB staining method; conditions: NCI-H23, 48 h
[26] = system: PC-3; assay: Growth inhibition of human PC3 cells after 48 hrs by SRB staining method; conditions: PC-3, 48 h
[27] = system: SNB-19; assay: Growth inhibition of human SNB19 cells after 48 hrs by SRB staining method; conditions: SNB-19, 48 h
[28] = system: U-251; assay: Growth inhibition of human U251 cells after 48 hrs by SRB staining method; conditions: U-251, 48 h
[29] = system: UO-31; assay: Growth inhibition of human UO31 cells after 48 hrs by SRB staining method; conditions: UO-31, 48 h
[30] = system: A498; assay: Growth inhibition of human A498 cells after 48 hrs by SRB staining method; conditions: A498, 48 h
[31] = system: 786-0; assay: Growth inhibition of human 786-0 cells after 48 hrs by SRB staining method; conditions: 786-0, 48 h
[32] = system: NCI/ADR-RES; assay: Growth inhibition of human NCI/ADR-RES cells after 48 hrs by SRB staining method
[33] = system: OVCAR-5; assay: Growth inhibition of human OVCAR5 cells after 48 hrs by SRB staining method; conditions: OVCAR-5, 48 h
[34] = read-out: pLC50 (the source's name) (converted)

## COc1cc(Nc2nc3cc(N)cc(N)c3nc2-c2ccccc2)cc(OC)c1
[1]
  GI50: 4.68 µM
[1]; [34]
  CC50: > 100 µM
[1]; read-out: pTGI (converted)
  TGI: 31.6 µM
[2]
  GI50: 27.5 µM
[2]; [34]
  CC50: > 100 µM
[2]; read-out: pTGI (converted)
  TGI: > 100 µM
[3]
  GI50: 2.88 µM
  LC50: > 100 µM
[3]; read-out: pTGI (converted)
  TGI: 33.1 µM
[4]
  GI50: 22.9 µM
[4]; [34]
  CC50: > 100 µM
[4]; read-out: pTGI (converted)
  TGI: > 100 µM
[5]
  GI50: 4.37 µM
  LC50: > 100 µM
[5]; read-out: pTGI (converted)
  TGI: 24.5 µM
[6]
  GI50: 7.41 µM
  LC50: 61.7 µM
[6]; read-out: pTGI (converted)
  TGI: 23.4 µM
[7]
  GI50: 12 µM
  LC50: > 100 µM
[7]; read-out: pTGI (converted)
  TGI: 63.1 µM
[8]
  GI50: 5.62 µM
[8]; [34]
  CC50: > 100 µM
[8]; read-out: pTGI (converted)
  TGI: > 100 µM
[9]
  GI50: 14.8 µM
[9]; [34]
  CC50: > 100 µM
[9]; read-out: pTGI (converted)
  TGI: 72.4 µM
[10]
  GI50: 14.5 µM
  LC50: 67.6 µM
[10]; read-out: pTGI (converted)
  TGI: 31.6 µM
[11]
  GI50: 2.69 µM
  LC50: > 100 µM
[11]; read-out: pTGI (converted)
  TGI: 17 µM
[12]
  GI50: 6.61 µM
[12]; [34]
  CC50: > 100 µM
[12]; read-out: pTGI (converted)
  TGI: 39.8 µM
[13]
  GI50: 12.6 µM
  LC50: > 100 µM
[13]; read-out: pTGI (converted)
  TGI: 58.9 µM
[14]
  GI50: 3.16 µM
[14]; [34]
  CC50: 95.5 µM
[14]; read-out: pTGI (converted)
  TGI: 18.6 µM
[15]
  GI50: 15.8 µM
  LC50: > 100 µM
[15]; read-out: pTGI (converted)
  TGI: 47.9 µM
[16]
  GI50: 7.94 µM
  LC50 (concentration killing 50% of cells): > 100 µM
[16]; read-out: pTGI (converted)
  TGI: 52.5 µM
[17]
  GI50: 20 µM
  LC50: > 100 µM
[17]; read-out: pTGI (converted)
  TGI: > 100 µM
[18]
  GI50: 5.62 µM
[18]; [34]
  CC50: > 100 µM
[18]; read-out: pTGI (converted)
  TGI: 83.2 µM
[19]
  GI50: 6.17 µM
[19]; [34]
  CC50: > 100 µM
[19]; read-out: pTGI (converted)
  TGI: 46.8 µM
[20]
  GI50: 4.47 µM
[20]; [34]
  CC50: > 100 µM
[20]; read-out: pTGI (converted)
  TGI: 22.9 µM
[21]
  GI50: 5.62 µM
[21]; [34]
  CC50: > 100 µM
[21]; read-out: pTGI (converted)
  TGI: 56.2 µM
[22]
  GI50: 6.46 µM
[22]; [34]
  CC50: > 100 µM
[22]; read-out: pTGI (converted)
  TGI: 34.7 µM
[23]
  GI50: 7.94 µM
[23]; [34]
  CC50: 85.1 µM
[23]; read-out: pTGI (converted)
  TGI: 26.9 µM
[24]
  GI50: 10 µM
[24]; [34]
  CC50: > 100 µM
[24]; read-out: pTGI (converted)
  TGI: > 100 µM
[25]
  GI50: 27.5 µM
  LC50: > 100 µM
[25]; read-out: pTGI (converted)
  TGI: > 100 µM
[26]
  GI50: 1.95 µM
[26]; [34]
  CC50: 57.5 µM
[26]; read-out: pTGI (converted)
  TGI: 11 µM
[27]
  GI50: 57.5 µM
  LC50: > 100 µM
[27]; read-out: pTGI (converted)
  TGI: > 100 µM
[28]
  GI50: 22.9 µM
  LC50 (50% lethal concentration): > 100 µM
[28]; read-out: pTGI (converted)
  TGI: > 100 µM
[29]
  GI50: 8.91 µM
[29]; [34]
  CC50: > 100 µM
[29]; read-out: pTGI (converted)
  TGI: 44.7 µM
[30]
  GI50: 4.9 µM
[30]; [34]
  CC50: 79.4 µM
[30]; read-out: pTGI (converted)
  TGI: 22.4 µM
[31]
  GI50: 17.8 µM
[31]; [34]
  CC50: > 100 µM
[31]; read-out: pTGI (converted)
  TGI: 51.3 µM
[32]
  GI50: 12.9 µM
[32]; [34]
  CC50: > 100 µM
[32]; read-out: pTGI (converted)
  TGI: 74.1 µM
[33]
  GI50: 26.3 µM
  LC50: > 100 µM
[33]; read-out: pTGI (converted)
  TGI: > 100 µM
